Results: patent US20250382264A1, “HETEROCYCLE-CONTAINING AMINO ACID COMPOUND AND COMPLEX” (AICHI STEEL CORPORATION, priority 2022, published 2025)

test system: not listed separately; experiment: Absorbance of aqueous iron complex solution irradiated with ultraviolet rays (253.7 nm); format: physicochemical; conditions: aqueous solution of the Fe complex of the named ligand, Fe 100 μM, pH 5.0, ultraviolet 253.7 nm, 10-mm cell
Description: For comparison, absorbance measurement was performed using an aqueous solution of each of an iron complex of ethylenediaminetetraacetic acid (EDTA) (hereinafter, referred to as “Fe-EDTA”), an iron complex of diethylenetriamine-N,N,N',N'',N''-pentaacetic acid (DTPA) (hereinafter, referred to as “Fe-DTPA”), an iron complex of hydroxybenzylethylenediamine (HBED) (hereinafter, referred to as “Fe-HBED”), an iron complex of N,N'-ethylene-bis([…]) (hereinafter, referred to as “Fe-EDDHA”), an iron complex of citric acid, and an iron complex (hereinafter, referred to as “Fe-PDMA”) of a compound represented by the following formula (hereinafter, referred to as “PDMA”). […] Subsequently, a deionized water was added to fill up to 220 mL. This aqueous solution was left to stand at a temperature of 25° C. for 1 hour to yield an aqueous solution of an iron complex having an Fe concentration of 100 μM (5.6 ppm). Thereafter, the absorbance of this aqueous complex solution was measured. […] Subsequently, a deionized water was added to fill up to 220 mL. […] Thereafter, the absorbance of this aqueous complex solution was measured in the same manner as described above (see Table 1). […] Subsequently, about 220 mL of a deionized water was added to the resultant mixture to yield an aqueous complex solution having an Fe concentration of 100 μM (5.6 ppm).

Row | Molecule | Absorbance
1 | O=C(O)[C@@H](O)CCN1CCC[C@H]1C(=O)O [Compound V2] | 0.193
2 | N[C@@H](CCN1CCC[C@H]1C(=O)O)C(=O)O [Compound V3] | 0.190
3 | CC(=O)N[C@@H](CCN1CCC[C@H]1C(=O)O)C(=O)O [Compound V4] | 0.144
4 | O=C(CO)N[C@@H](CCN1CCC[C@H]1C(=O)O)C(=O)O [Compound V5] | 0.350
5 | O=C(O)CN[C@@H](CCN1CCC[C@H]1C(=O)O)C(=O)O [Compound V6] | 0.378
6 | CN(CCC(=O)O)[C@@H](CCN1CCC[C@H]1C(=O)O)C(=O)O [Compound V7] | 0.354
7 | N[C@@H](CCN1CC[C@H]1C(=O)O)C(=O)O [Compound V8] | 0.195
8 | O=C(O)[C@@H](O)CCN1CC[C@H]1C(=O)O [Compound V9] | 0.332
9 | O=C([O-])CN(CCN(CC(=O)[O-])CC(=O)[O-])CC(=O)[O-].[Fe+3] [Fe-EDTA, iron complex of ethylenediaminetetraacetic acid] | 1.452
10 | O=C(O)C(O)CCN[C@@H](CCN1CCC[C@H]1C(=O)O)C(=O)O (stereo partly shown) [Fe-PDMA] | 0.644
11 | iron complex of diethylenetriamine-N,N,N′,N″,N″-pentaacetic acid [Fe-DTPA] | 1.073
12 | iron complex of hydroxybenzylethylenediamine [Fe-HBED] | 0.914

test system: corn variety "Launcher 82"; experiment: Plant cultivation test (1): hydroponic cultivation of corn, leaf color (SPAD value); format: in vivo; conditions: 3 mL iron material with Fe 100 μM, 3rd day after administration, average of two pots
Description: Seeds of corn variety “Launcher 82” were placed on a paper towel wetted with tap water. 8 days after germination, the seedlings were immersed in 45 mL of a hydroponic nutrient solution (a liquid based on the formulation in the Horticultural Experiment Station). 2 days after that, 3 mL of iron materials including various aqueous complex solutions were administered to the seedlings. Then, on the 3rd day after the administration of the iron materials, the leaf color (SPAD value) of corn was measured. This hydroponic cultivation was performed in two pots, and the average value of the SPAD values was calculated. For comparison, an experiment of administering only iron sulfate and an experiment of administering no iron material were also performed.

Row | Molecule | SPAD value Average
13 | O=S(=O)([O-])[O-].[Fe+2] [Fe only, iron sulfate] | 9.5
